For ten compounds, TGI and GI50 results are on record in PubChem BioAssay (NCI).

Values joined by “and” are separate entries in the source; they are usually repeats but may differ in a detail not shown here. Identical values can stand only once.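 Compound exposure: 48 hours, 5 concentrations, 96-well plates. The concentration for 50% growth inhibition is given as GI50. TGI marks complete inhibition of growth.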 Starred links: 1 amine or outer side, 2 acyl side, 3 side chain; linkers in the order of their positions; H or OH if unused. Positions of bridges follow the written chain, without caps; N, C: chain ends. Non-standard residues stand in square brackets, D forms with d. Residues, ends and D or L forms follow the SMILES beside them. Chains are numbered I, II in the order given. Actinocin(1to9) = Cc1c2oc3c(C)ccc(C(=O)[*:2])c3nc-2c(C(=O)[*:1])c(N)c1=O; NMeV = CN[CH](C(=O)O)C(C)C; Sar = CNCC(=O)O

Among the test systems are A549 NSCLC; K-562 leukemia; MDA-MB-435; NCI-H522 lung; RPMI-8226 leukemia; SK-MEL-28 melanoma; SK-OV-3 ovarian; SN12C renal; TK-10 renal; UACC-257 melanoma.
What all share (experiment): DTP human tumour cell line panel, 48 h

With `O=C(CSc1nc2ccc([N+](=O)[O-])cc2s1)c1ccc2ccccc2c1`, the TGI in the assay on A549 NSCLC, with K-562 leukemia, with MDA-MB-435, with NCI-H522 lung, with RPMI-8226 leukemia and in the assay with SK-MEL-28 melanoma was greater than 100 µM each time. Further, the TGI in the assay with SK-OV-3 ovarian, in the assay on SN12C renal, with TK-10 renal and in the assay on UACC-257 melanoma was greater than 100 µM in each case.

On to `Nc1ncnc2c1sc1nc3ccccc3n12`, for which the TGI (as a rule, the concentration at which net growth stops) in the assay with A549 NSCLC was greater than 100 µM; in the assay on K-562 leukemia, greater than 100 µM; in the assay on MDA-MB-435, greater than 100 µM; with NCI-H522 lung, greater than 95.8 µM; in the assay with RPMI-8226 leukemia, greater than 100 µM; in the assay with SK-MEL-28 melanoma, greater than 100 µM. The TGI in the assay with SK-OV-3 ovarian, in the assay on SN12C renal, in the assay on TK-10 renal and in the assay on UACC-257 melanoma was greater than 100 µM throughout.

Turning to `CCC(C)C1NC(=O)C(NC(=O)c2c3nc4c(C(=O)NC5C(=O)NC(C(C)CC)C(=O)N6CCCC6C(=O)N(C)CC(=O)N(C)C(C(C)C)C(=O)OC5C)ccc(C)c4oc-3c(C)c(=O)c2N)C(C)OC(=O)C(C(C)C)N(C)C(=O)CN(C)C(=O)C2CCCN2C1=O` (stereo unspecified) (I: TIP[Sar][NMeV] / II: TIP[Sar][NMeV]; ester I:1-I:C, II:1-II:C; linker I:N-II:N via Actinocin(1to9); configuration not given here), the TGI in the assay on A549 NSCLC is 10.9 µM; with K-562 leukemia it was 0.0109 µM and 0.0132 µM; in the assay on MDA-MB-435, 0.0169 µM; with NCI-H522 lung it was 0.00176 µM; with RPMI-8226 leukemia, 0.0322 µM; in the assay with SK-MEL-28 melanoma it was 0.0152 µM. Moreover, the TGI with SK-OV-3 ovarian was 0.578 µM; in the assay on SN12C renal, 0.192 µM and 0.263 µM; in the assay on TK-10 renal, 0.0755 µM; in the assay on UACC-257 melanoma, 0.00726 µM.

`CC(C)(C)OC(=O)NC(CCCCNC(=O)OCc1ccccc1)C(=O)NCCNc1ccc(NCCNC(=O)C(CCCCNC(=O)OCc2ccccc2)NC(=O)OC(C)(C)C)c2c1C(=O)c1ccccc1C2=O` (stereo unspecified): the TGI is greater than 100 µM in the assay with A549 NSCLC; greater than 100 µM in the assay with K-562 leukemia; greater than 100 µM with MDA-MB-435; 93.3 µM in the assay with NCI-H522 lung; greater than 27.4 µM in the assay on RPMI-8226 leukemia; greater than 100 µM with SK-MEL-28 melanoma. For the same compound, the TGI is greater than 90.1 µM in the assay with SK-OV-3 ovarian, greater than 100 µM in the assay with SN12C renal, greater than 100 µM in the assay with TK-10 renal and greater than 100 µM in the assay with UACC-257 melanoma.

As to `Cn1c(=O)[nH]c2nncnc2c1=O`, the TGI was greater than 525 µM in the assay on A549 NSCLC; greater than 519 µM in the assay on K-562 leukemia; greater than 516 µM in the assay with NCI-H522 lung; 389 µM in the assay with RPMI-8226 leukemia; greater than 625 µM with SK-MEL-28 melanoma; 498 µM with SK-OV-3 ovarian. Further, the TGI with SN12C renal is greater than 497 µM; with UACC-257 melanoma, 302 µM.

Consider `O=c1[nH]c(Nc2ccc(Cl)c(C(F)(F)F)c2)nc2nc[nH]c12`, for which the TGI with A549 NSCLC is greater than 100 µM; in the assay with K-562 leukemia, greater than 100 µM; with MDA-MB-435, greater than 100 µM; in the assay on NCI-H522 lung, 34.3 µM; in the assay on RPMI-8226 leukemia it was greater than 100 µM; in the assay on SK-OV-3 ovarian it was greater than 100 µM. The TGI in the assay on SN12C renal, in the assay with TK-10 renal and in the assay on UACC-257 melanoma was greater than 100 µM each time.

With `Cc1ccccc1N=Nc1c(O)c(S(=O)(=O)O)cc2cc(S(=O)(=O)O)ccc12`, the TGI with A549 NSCLC, in the assay on K-562 leukemia, in the assay with MDA-MB-435, in the assay with NCI-H522 lung, in the assay on SK-MEL-28 melanoma and with SK-OV-3 ovarian was greater than 100 µM each time. For the same compound, the TGI in the assay on SN12C renal, in the assay with TK-10 renal and in the assay on UACC-257 melanoma was greater than 100 µM in each case.

With `COc1ccc(C(=O)C2=NON3OC23C(=O)c2ccc(OC)cc2)cc1` (stereo unspecified), the TGI in the assay on A549 NSCLC was 48.5 µM; in the assay on K-562 leukemia it was 8.29 µM; in the assay with NCI-H522 lung it was 3.68 µM; in the assay with RPMI-8226 leukemia, greater than 50.7 µM; with SK-MEL-28 melanoma, 32.7 µM; with SK-OV-3 ovarian, 33.7 µM. In addition, the TGI in the assay with SN12C renal is 28.6 µM; with TK-10 renal it was 34.1 µM; in the assay with UACC-257 melanoma, 34.9 µM.

With `COCC1CCCN1c1ccc(C=N/C(C#N)=C(\N)C#N)cc1` (stereo unspecified), the GI50 (commonly the concentration that inhibits growth by half) in the assay with A549 NSCLC was 14 µM; with MDA-MB-435, greater than 100 µM; with NCI-H522 lung, 15.8 µM; with SK-MEL-28 melanoma, greater than 100 µM; in the assay with SK-OV-3 ovarian it was 27.5 µM; with SN12C renal it was 4.85 µM. Also, the GI50 was 49.2 µM with TK-10 renal and greater than 100 µM in the assay with UACC-257 melanoma. Moreover, the TGI in the assay on A549 NSCLC was greater than 100 µM; in the assay on MDA-MB-435, greater than 100 µM; in the assay on NCI-H522 lung, 56.2 µM; in the assay on SK-MEL-28 melanoma, greater than 100 µM; in the assay on SK-OV-3 ovarian, greater than 100 µM; in the assay on SN12C renal it was 84.5 µM. Also, the TGI in the assay on TK-10 renal and with UACC-257 melanoma was greater than 100 µM each time.

With `OCc1cn(C(c2ccccc2)(c2ccccc2)c2ccccc2)cn1`, the TGI in the assay with A549 NSCLC, in the assay on K-562 leukemia, with MDA-MB-435, in the assay with NCI-H522 lung, in the assay with RPMI-8226 leukemia and in the assay with SK-MEL-28 melanoma was greater than 100 µM throughout. The TGI in the assay on SK-OV-3 ovarian, in the assay on SN12C renal, in the assay with TK-10 renal and with UACC-257 melanoma was greater than 100 µM throughout.
